Patent US12312419B2, “Hemiasterlin derivative having cysteine residue” (priority 2019, dated 2025)

Test system: Karpas-299 cells
Assay: Cellular toxicity test (1), CellTiter-Glo cell viability
Type: cell-based, human
Details: Homo sapiens, 96 h; Karpas-299; cultured 4 days; cell viability
Method: Karpas-299 cells (European Collection of Authenticated Cell Cultures, hereinafter, ECACC), which are human lymphoma cell lines, were cultured in RPMI 1640 (GIBCO) containing 10% fetal bovine serum (MP Biomedicals) (hereinafter, referred to as the “culture medium”). Cells were prepared to be 2×10^5 cells/mL in the culture medium, and were added to a 96 well microplate for cell culturing in an amount of 50 μL for each well. Compounds of Examples or the Comparative Example compound 4 times diluted with the culture medium in 8 stages were added to the microplate in an amount of 50 μL for each well. These were cultured at 37° C. under 5% CO2 for 4 days. After culturing, the microplate was taken out from the incubator, and was left at rest at room temperature for 10 minutes. To each well, 50 μL of CellTiter-Glo Luminescent Cell Viability Assay (Promega) was added, and the resultant mixture was stirred. This mixture was incubated at a dark place for 20 minutes. Using a microplate luminometer, luminescence at each well was measured, thereby calculating the cell viability. From the value of the cell viability, the IC50 value was calculated.
The IC50 value was calculated by the following formula: IC50(nM)=antilog(LOG10(a/b)×(e−d)/(c−d)+LOG10b) • a: concentration a of test substance • b: concentration b of test substance • c: cell viability upon adding test substance with concentration a • d: cell viability upon adding test substance with concentration b • e: intermediate value between maximum and minimum among cell viabilities upon adding test substances with different concentrations (a and b are concentrations crossing the cell viability e, and a>b is indicated).
The cell viability at each concentration was calculated by the following formula: Cell Viability (%)=a′/b′×100 • a′: mean value of luminescence amount of wells to which test substance was added (n=6) • b′: mean value of luminescence amount of wells to which test substance was not added (n=6) • (n represents the number of evaluations performed per test substance concentration).

| Compound | IC50 [nM] |
| --- | --- |
| CN[C@H](C(=O)N[C@H](C(=O)N(C)[C@H](/C=C(\C)C(=O)N[C@H](CC(=O)O)C(=O)NCCN1C(=O)CC(SC[C@H](N)C(=O)O)C1=O)C(C)C)C(C)(C)C)C(C)(C)c1cn(C)c2ccccc12 (stereo partly shown) [Example MM24] | 521 |
| CN[C@H](C(=O)N[C@H](C(=O)N(C)[C@H](/C=C(\C)C(=O)N[C@H](CCC(=O)N[C@H](CCC(=O)N[C@H](CCC(=O)NCCN1C(=O)CC(SC[C@H](N)C(=O)O)C1=O)C(=O)O)C(=O)O)C(=O)O)C(C)C)C(C)(C)C)C(C)(C)c1ccccc1 (stereo partly shown) [Example MM7] | > 1000 |
| CN[C@H](C(=O)N[C@H](C(=O)N(C)[C@H](/C=C(\C)C(=O)N[C@H](CC(=O)O)C(=O)NCCN1C(=O)CC(SC[C@H](N)C(=O)O)C1=O)C(C)C)C(C)(C)C)C(C)(C)c1ccccc1 (stereo partly shown) [Example MM13] | > 1000 |
| CNC(C(=O)N[C@H](C(=O)N(C)[C@H](/C=C(\C)C(=O)N[C@H](CCC(=O)NCCN1C(=O)CC(SC[C@H](N)C(=O)O)C1=O)C(=O)O)C(C)C)C(C)(C)C)C(C)(C)c1ccc(O)cc1 (stereo partly shown) [Example MM33] | 36 |
| CN[C@H](C(=O)N[C@H](C(=O)N(C)[C@H](/C=C(\C)C(=O)N[C@H](CCC(=O)N[C@@H](CCCCNC(=O)CCN1C(=O)CC(SC[C@H](N)C(=O)O)C1=O)C(=O)O)C(=O)O)C(C)C)C(C)(C)C)C(C)(C)c1cn(C)c2ccc(F)cc12 (stereo partly shown) [Example MM26] | 384 |
| CN[C@H](C(=O)N[C@H](C(=O)N(C)[C@H](/C=C(\C)C(=O)N[C@H](CCC(=O)NCCN1C(=O)CC(SC[C@H](N)C(=O)O)C1=O)C(=O)O)C(C)C)C(C)(C)C)C(C)(C)c1ccc(C(=O)O)cc1 (stereo partly shown) [Example MM35] | > 1000 |
| CN[C@H](C(=O)N[C@H](C(=O)N(C)[C@H](/C=C(\C)C(=O)NCCCC[C@@H](NC(=O)CCCN1C(=O)CC(SC[C@H](N)C(=O)O)C1=O)C(=O)O)C(C)C)C(C)(C)C)C(C)(C)c1cn(C)c2ccccc12 (stereo partly shown) [Example MM5] | > 1000 |
| CN[C@H](C(=O)N[C@H](C(=O)N(C)[C@H](/C=C(\C)C(=O)N[C@H](CC(=O)NCCN1C(=O)CC(SC[C@H](N)C(=O)O)C1=O)C(=O)O)C(C)C)C(C)(C)C)C(C)(C)c1cn(C)c2ccccc12 (stereo partly shown) [Example MM20] | 337 |
| CN[C@H](C(=O)N[C@H](C(=O)N(C)[C@H](/C=C(\C)C(=O)N[C@H](CCC(=O)N[C@H](CCC(=O)NCCN1C(=O)CC(SC[C@H](N)C(=O)O)C1=O)C(=O)O)C(=O)O)C(C)C)C(C)(C)C)C(C)(C)c1cn(C)c2ccccc12 (stereo partly shown) [Example MM3] | 387 |
| CN[C@H](C(=O)N[C@H](C(=O)N(C)[C@H](/C=C(\C)C(=O)N[C@H](CCC(=O)NCCN1C(=O)CC(SC[C@H](N)C(=O)O)C1=O)C(=O)O)C(C)C)C(C)(C)C)C(C)(C)c1cn(C)c2ccccc12 (stereo partly shown) [Example MM4] | 289 |
| CNC(C(=O)N[C@H](C(=O)N(C)[C@H](/C=C(\C)C(=O)N[C@H](CCC(=O)O)C(=O)O)C(C)C)C(C)(C)C)C(C)(C)c1ccc(C(=O)NCCN2C(=O)CC(SC[C@H](N)C(=O)O)C2=O)cc1 (stereo partly shown) [Example MM43] | > 1000 |
| CN[C@H](C(=O)N[C@H](C(=O)N(C)[C@H](/C=C(\C)C(=O)N[C@H](CCC(=O)NCCN1C(=O)CC(SC[C@H](N)C(=O)O)C1=O)C(=O)O)C(C)C)C(C)(C)C)C(C)(C)c1cccc(F)c1 (stereo partly shown) [Example MM31] | > 1000 |
| CN[C@H](C(=O)N[C@H](C(=O)N(C)[C@H](/C=C(\C)C(=O)N[C@@H](CC(=O)NCCN1C(=O)CC(SC[C@H](N)C(=O)O)C1=O)C(=O)O)C(C)C)C(C)(C)C)C(C)(C)c1ccccc1 (stereo partly shown) [Example MM10] | > 1000 |
| CN[C@H](C(=O)N[C@H](C(=O)N(C)[C@H](/C=C(\C)C(=O)N[C@H](CCC(=O)NCCN1C(=O)CC(SC[C@H](N)C(=O)O)C1=O)C(=O)O)C(C)C)C(C)(C)C)C(C)(C)c1cccc(C)c1 (stereo partly shown) [Example MM40] | 146 |
| CN[C@H](C(=O)N[C@H](C(=O)N(C)[C@H](/C=C(\C)C(=O)N[C@H](CCC(=O)NCCN1C(=O)CC(SC[C@H](N)C(=O)O)C1=O)C(=O)O)C(C)C)C(C)(C)C)C(C)(C)c1ccc2ccccc2c1 (stereo partly shown) [Example MM38] | 726 |
| CN[C@H](C(=O)N[C@H](C(=O)N(C)[C@H](/C=C(\C)C(=O)N[C@H](CCC(=O)NCCN1C(=O)CC(SC[C@H](N)C(=O)O)C1=O)C(=O)O)C(C)C)C(C)(C)C)C(C)(C)c1cccc(-c2ccccc2)c1 (stereo partly shown) [Example MM39] | 118 |
| CN[C@H](C(=O)N[C@H](C(=O)N(C)[C@H](/C=C(\C)C(=O)N[C@H](CCC(=O)N[C@H](CCC(=O)NCCN1C(=O)CC(SC[C@H](N)C(=O)O)C1=O)C(=O)O)C(=O)O)C(C)C)C(C)(C)C)C(C)(C)c1ccccc1 (stereo partly shown) [Example MM6] | > 1000 |
| CN[C@H](C(=O)N[C@H](C(=O)N(C)[C@H](/C=C(\C)C(=O)N[C@H](CCC(=O)N[C@@H](CCCCNC(=O)CCCCCN1C(=O)CC(SC[C@H](N)C(=O)O)C1=O)C(=O)O)C(=O)O)C(C)C)C(C)(C)C)C(C)(C)c1cn(C)c2ccccc12 (stereo partly shown) [Example MM2] | 459 |
| C/C(=C\[C@H](C(C)C)N(C)C(=O)[C@@H](NC(=O)[C@H]1CCCCN1C(=O)CCN1C(=O)CC(SC[C@H](N)C(=O)O)C1=O)C(C)(C)C)C(=O)N[C@H](CCC(=O)O)C(=O)O (stereo partly shown) [Example MM29] | > 1000 |
| CN[C@H](C(=O)N[C@H](C(=O)N(C)[C@H](/C=C(\C)C(=O)N[C@@H](CC(=O)O)C(=O)NCCN1C(=O)CC(SC[C@H](N)C(=O)O)C1=O)C(C)C)C(C)(C)C)C(C)(C)c1ccccc1 (stereo partly shown) [Example MM14] | > 1000 |
| CN[C@H](C(=O)N[C@H](C(=O)N(C)[C@H](/C=C(\C)C(=O)N[C@H](CCC(=O)NCCN1C(=O)CC(SC[C@H](N)C(=O)O)C1=O)C(=O)O)C(C)C)C(C)(C)C)C(C)(C)c1cc(C)cc(C)c1 (stereo partly shown) [Example MM37] | > 1000 |
| CN[C@H](C(=O)N[C@H](C(=O)N(C)[C@H](/C=C(\C)C(=O)N[C@@H](CC(=O)O)C(=O)NCCN1C(=O)CC(SC[C@H](N)C(=O)O)C1=O)C(C)C)C(C)(C)C)C(C)(C)c1cn(C)c2ccccc12 (stereo partly shown) [Example MM21] | 471 |
| CN[C@H](C(=O)N[C@H](C(=O)N(C)[C@H](/C=C(\C)C(=O)N[C@@H](CC(=O)NCCN1C(=O)CC(SC[C@H](N)C(=O)O)C1=O)C(=O)O)C(C)C)C(C)(C)C)C(C)(C)c1cn(C)c2ccccc12 (stereo partly shown) [Example MM19] | 303 |
| CN[C@H](C(=O)N[C@H](C(=O)N(C)[C@H](/C=C(\C)C(=O)N[C@@H](CCCCNC(=O)CCCN1C(=O)CC(SC[C@H](N)C(=O)O)C1=O)C(=O)O)C(C)C)C(C)(C)C)C(C)(C)c1cn(C)c2ccccc12 (stereo partly shown) [Example MM27] | > 1000 |
| CN[C@H](C(=O)N[C@H](C(=O)N(C)[C@H](/C=C(\C)C(=O)N[C@H](CCC(=O)O)C(=O)NCCN1C(=O)CC(SC[C@H](N)C(=O)O)C1=O)C(C)C)C(C)(C)C)C(C)(C)c1cn(C)c2ccccc12 (stereo partly shown) [Example MM25] | 555 |
| CN[C@H](C(=O)N[C@H](C(=O)N(C)[C@H](/C=C(\C)C(=O)N[C@@H](CCC(=O)O)C(=O)NCCN1C(=O)CC(SC[C@H](N)C(=O)O)C1=O)C(C)C)C(C)(C)C)C(C)(C)c1cn(C)c2ccccc12 (stereo partly shown) [Example MM22] | 740 |
| CN[C@H](C(=O)N[C@H](C(=O)N(C)[C@H](/C=C(\C)C(=O)N[C@H](CC(=O)NCCN1C(=O)CC(SC[C@H](N)C(=O)O)C1=O)C(=O)O)C(C)C)C(C)(C)C)C(C)(C)c1ccccc1 (stereo partly shown) [Example MM9] | > 1000 |
| CN[C@H](C(=O)N[C@H](C(=O)N(C)[C@H](/C=C(\C)C(=O)N[C@H](CCC(=O)NCCN1C(=O)CC(SC[C@H](N)C(=O)O)C1=O)C(=O)O)C(C)C)C(C)(C)C)C(C)(C)c1cccc(OC)c1 (stereo partly shown) [Example MM36] | > 1000 |
| C/C(=C\[C@H](C(C)C)N(C)C(=O)[C@@H](NC(=O)[C@@H](NC(=O)CCCCCN1C(=O)CC(SC[C@H](N)C(=O)O)C1=O)C(C)(C)c1cn(C)c2ccccc12)C(C)(C)C)C(=O)N[C@H](CCC(=O)O)C(=O)O (stereo partly shown) [Example MM44] | > 1000 |
| CN[C@H](C(=O)N[C@H](C(=O)N(C)[C@H](/C=C(\C)C(=O)N[C@H](CCC(=O)NCCCN1C(=O)CC(SC[C@H](N)C(=O)O)C1=O)C(=O)O)C(C)C)C(C)(C)C)C(C)(C)c1ccccc1 (stereo partly shown) [Example MM16] | 867 |

Same assay, conditions: in words, summary of Table 17

| Compound | cellular toxicity to Karpas-299 cells |
| --- | --- |
| CN[C@H](C(=O)N[C@H](C(=O)N(C)[C@H](/C=C(\C)C(=O)NCCCCNC(=O)CCCCCN1C(=O)CC(SC[C@H](N)C(=O)O)C1=O)C(C)C)C(C)(C)C)C(C)(C)c1cn(C)c2ccccc12 (stereo partly shown) [Comparative Example compound, reference compound] | strong cellular toxicity |
